From ChEMBL document CHEMBL3608278 (J Med Chem, 2015)

Columns and labels:
[1] = target: T1, Potassium voltage-gated channel subfamily A member 3 (Homo sapiens, UniProt P22001); assay: cell-based; parameters: species or system Blood
[2] = target: T1, Potassium voltage-gated channel subfamily A member 3; format: cell-based, CHO-K1
[3] = target: T1, Potassium voltage-gated channel subfamily A member 3; parameters: species or system Blood

T1 sequence (P22001 whole entry): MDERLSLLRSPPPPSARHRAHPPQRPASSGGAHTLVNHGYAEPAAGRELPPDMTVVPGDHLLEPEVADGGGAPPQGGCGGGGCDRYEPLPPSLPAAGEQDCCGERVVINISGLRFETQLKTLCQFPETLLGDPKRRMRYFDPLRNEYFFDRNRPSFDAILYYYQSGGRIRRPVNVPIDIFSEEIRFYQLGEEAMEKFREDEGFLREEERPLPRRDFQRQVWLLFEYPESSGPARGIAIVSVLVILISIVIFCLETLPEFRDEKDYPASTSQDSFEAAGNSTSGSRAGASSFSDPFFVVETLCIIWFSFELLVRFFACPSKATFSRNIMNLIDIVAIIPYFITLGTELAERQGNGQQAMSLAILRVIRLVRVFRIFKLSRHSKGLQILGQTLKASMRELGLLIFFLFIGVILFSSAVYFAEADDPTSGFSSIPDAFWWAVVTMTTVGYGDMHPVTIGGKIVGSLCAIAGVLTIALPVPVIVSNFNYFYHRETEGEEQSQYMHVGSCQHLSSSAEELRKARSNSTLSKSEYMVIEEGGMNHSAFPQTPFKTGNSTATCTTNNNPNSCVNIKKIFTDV

Row | SMILES | IC50 [1] | IC50 [2] | IC50 [3]
1 | CC[C@H](C)[C@@H]1NC(=O)[C@@H](NC(=O)[C@H](CO)NC(=O)[C@@H](N)CCCNC(=N)N)CSSC[C@@H](C(=O)O)NC(=O)[C@H]([C@@H](C)O)NC(=O)CNC(=O)[C@@H]2CSSC[C@@H]3NC(=O)[C@H](CCC(N)=O)NC(=O)[C@H](Cc4ccccc4)NC(=O)[C@H](C)NC(=O)[C@H]([C@@H](C)O)NC(=O)[C@H](CSSC[C@H](NC(=O)[C@H](Cc4ccccc4)NC(=O)[C@H](CO)NC(=O)[C@H](CC(C)C)NC(=O)[C@H](CCCNC(=N)N)NC(=O)[C@H](CCCNC(=N)N)NC(=O)[C@H](CCCCN)NC(=O)[C@H](CCSC)NC(=O)[C@H](CO)NC(=O)[C@H](Cc4cnc[nH]4)NC(=O)[C@H](CCCCN)NC3=O)C(=O)N[C@@H](CCCNC(=N)N)C(=O)N[C@@H](CCCCN)C(=O)N[C@@H]([C@@H](C)O)C(=O)N2)NC(=O)[C@H](CCCNC(=N)N)NC(=O)[C@H](CO)NC(=O)[C@H](CCCCN)NC(=O)[C@@H]2CCCN2C(=O)[C@H]([C@@H](C)CC)NC(=O)[C@H]([C@@H](C)O)NC(=O)[C@H](CC(=O)O)NC1=O | > 100 nM | > 3.33 nM | > 100 nM
2 | CC[C@H](C)[C@@H]1NC(=O)[C@@H](NC(=O)[C@H](CO)NC(=O)[C@@H](N)CCCNC(=N)N)CSSC[C@@H](C(=O)O)NC(=O)[C@H]([C@@H](C)O)NC(=O)CNC(=O)[C@@H]2CSSC[C@@H]3NC(=O)[C@H](CCC(N)=O)NC(=O)[C@H](Cc4ccccc4)NC(=O)[C@H](C)NC(=O)[C@H]([C@@H](C)O)NC(=O)[C@H](CSSC[C@H](NC(=O)[C@H](CCCNC(=N)N)NC(=O)[C@H](CO)NC(=O)[C@H](CC(C)C)NC(=O)[C@H](CCCNC(=N)N)NC(=O)[C@H](Cc4ccc(O)cc4)NC(=O)[C@H](CCCCN)NC(=O)[C@H](CCSC)NC(=O)[C@H](CO)NC(=O)[C@H](Cc4cnc[nH]4)NC(=O)[C@H](CCCCN)NC3=O)C(=O)N[C@@H](CCCNC(=N)N)C(=O)N[C@@H](CCCCN)C(=O)N[C@@H]([C@@H](C)O)C(=O)N2)NC(=O)[C@H](CCCNC(=N)N)NC(=O)[C@H](CO)NC(=O)[C@H](CCCCN)NC(=O)[C@@H]2CCCN2C(=O)[C@H]([C@@H](C)CC)NC(=O)[C@H]([C@@H](C)O)NC(=O)[C@H](CC(=O)O)NC1=O | 13 nM | > 3.33 nM | 59.7 nM
3 | CC[C@H](C)[C@@H]1NC(=O)[C@@H](NC(=O)[C@H](CO)NC(=O)[C@@H](N)CCCNC(=N)N)CSSC[C@@H](C(=O)O)NC(=O)[C@H]([C@@H](C)O)NC(=O)CNC(=O)[C@@H]2CSSC[C@@H]3NC(=O)[C@H](CCC(N)=O)NC(=O)[C@H](Cc4ccccc4)NC(=O)[C@H](C)NC(=O)[C@H]([C@@H](C)O)NC(=O)[C@H](CSSC[C@H](NC(=O)[C@H](Cc4ccccc4)NC(=O)[C@H](CO)NC(=O)[C@H](CC(C)C)NC(=O)[C@H](CCCNC(=N)N)NC(=O)[C@H](Cc4ccc(O)cc4)NC(=O)[C@H](CCCCN)NC(=O)[C@H](CCSC)NC(=O)[C@H](CO)NC(=O)[C@H](Cc4c[nH]cn4)NC(=O)[C@H](CCCCN)NC3=O)C(=O)N[C@@H](CCCNC(=N)N)C(=O)N[C@@H](CCCCN)C(=O)N[C@@H](CCCNC(=N)N)C(=O)N2)NC(=O)[C@H](CCCNC(=N)N)NC(=O)[C@H](CO)NC(=O)[C@H](CCCCN)NC(=O)[C@@H]2CCCN2C(=O)[C@H]([C@@H](C)CC)NC(=O)[C@H]([C@@H](C)O)NC(=O)[C@H](CC(=O)O)NC1=O | 11.1 nM | > 3.33 nM | 39 nM
4 | CC[C@H](C)[C@@H]1NC(=O)[C@@H](NC(=O)[C@H](CO)NC(=O)[C@@H](N)CCCNC(=N)N)CSSC[C@@H](C(=O)O)NC(=O)[C@H]([C@@H](C)O)NC(=O)[C@H](CCCNC(=N)N)NC(=O)[C@@H]2CSSC[C@@H]3NC(=O)[C@H](CCC(N)=O)NC(=O)[C@H](Cc4ccccc4)NC(=O)[C@H](C)NC(=O)[C@H]([C@@H](C)O)NC(=O)[C@H](CSSC[C@H](NC(=O)[C@H](Cc4ccccc4)NC(=O)[C@H](CO)NC(=O)[C@H](CC(C)C)NC(=O)[C@H](CCCNC(=N)N)NC(=O)[C@H](Cc4ccc(O)cc4)NC(=O)[C@H](CCCCN)NC(=O)[C@H](CCSC)NC(=O)[C@H](CO)NC(=O)[C@H](Cc4cnc[nH]4)NC(=O)[C@H](CCCCN)NC3=O)C(=O)N[C@@H](CCCNC(=N)N)C(=O)N[C@@H](CCCCN)C(=O)N[C@@H]([C@@H](C)O)C(=O)N2)NC(=O)[C@H](CCCNC(=N)N)NC(=O)[C@H](CO)NC(=O)[C@H](CCCCN)NC(=O)[C@@H]2CCCN2C(=O)[C@H]([C@@H](C)CC)NC(=O)[C@H]([C@@H](C)O)NC(=O)[C@H](CC(=O)O)NC1=O | 0.089 nM | 0.221 nM | 0.223 nM
5 | CC[C@H](C)[C@@H]1NC(=O)[C@@H](NC(=O)[C@H](CO)NC(=O)[C@@H](N)CCCNC(=N)N)CSSC[C@@H](C(=O)O)NC(=O)[C@H](CCCNC(=N)N)NC(=O)CNC(=O)[C@@H]2CSSC[C@@H]3NC(=O)[C@H](CCC(N)=O)NC(=O)[C@H](Cc4ccccc4)NC(=O)[C@H](C)NC(=O)[C@H]([C@@H](C)O)NC(=O)[C@H](CSSC[C@H](NC(=O)[C@H](Cc4ccccc4)NC(=O)[C@H](CO)NC(=O)[C@H](CC(C)C)NC(=O)[C@H](CCCNC(=N)N)NC(=O)[C@H](Cc4ccc(O)cc4)NC(=O)[C@H](CCCCN)NC(=O)[C@H](CCSC)NC(=O)[C@H](CO)NC(=O)[C@H](Cc4cnc[nH]4)NC(=O)[C@H](CCCCN)NC3=O)C(=O)N[C@@H](CCCNC(=N)N)C(=O)N[C@@H](CCCCN)C(=O)N[C@@H]([C@@H](C)O)C(=O)N2)NC(=O)[C@H](CCCNC(=N)N)NC(=O)[C@H](CO)NC(=O)[C@H](CCCCN)NC(=O)[C@@H]2CCCN2C(=O)[C@H]([C@@H](C)CC)NC(=O)[C@H]([C@@H](C)O)NC(=O)[C@H](CC(=O)O)NC1=O | 0.357 nM | 0.191 nM | 0.475 nM
6 | CC[C@H](C)[C@@H]1NC(=O)[C@@H](NC(=O)[C@H](CO)NC(=O)[C@@H](N)CCCCN)CSSC[C@@H](C(=O)O)NC(=O)[C@H]([C@@H](C)O)NC(=O)CNC(=O)[C@@H]2CSSC[C@@H]3NC(=O)[C@H](CCC(N)=O)NC(=O)[C@H](Cc4ccccc4)NC(=O)[C@H](C)NC(=O)[C@H]([C@@H](C)O)NC(=O)[C@H](CSSC[C@H](NC(=O)[C@H](Cc4ccccc4)NC(=O)[C@H](CO)NC(=O)[C@H](CC(C)C)NC(=O)[C@H](CCCNC(=N)N)NC(=O)[C@H](Cc4ccc(O)cc4)NC(=O)[C@H](CCCCN)NC(=O)[C@H](CCSC)NC(=O)[C@H](CO)NC(=O)[C@H](Cc4cnc[nH]4)NC(=O)[C@H](CCCCN)NC3=O)C(=O)N[C@@H](CCCNC(=N)N)C(=O)N[C@@H](CCCCN)C(=O)N[C@@H]([C@@H](C)O)C(=O)N2)NC(=O)[C@H](CCCNC(=N)N)NC(=O)[C@H](CO)NC(=O)[C@H](CCCCN)NC(=O)[C@@H]2CCCN2C(=O)[C@H]([C@@H](C)CC)NC(=O)[C@H]([C@@H](C)O)NC(=O)[C@H](CC(=O)O)NC1=O | 0.036 nM | 0.154 nM | 0.073 nM
